This note sets out measurements from PMC6372556, “The Neisseria gonorrhoeae Methionine Sulfoxide Reductase (MsrA/B) Is a Surface Exposed, Immunogenic, Vaccine Candidate” (Frontiers in Immunology, 2019).

The target of the assay is T1, MsrA/B.
T1 construct: recombinant, msr gene of strain 1291 in pET15b (NdeI/XhoI primers), His-tagged, E. coli BL21 Star (DE3)pLysS, TALON purified; full protein 522 aa; amine-coupled to SPR chip
In words: SPR, Biacore T200, single cycle kinetics, MsrA/B immobilized by amine coupling on CM5 chip. The assay is classed as binding, Neisseria gonorrhoeae. Conditions: free Met(O) 0.16-100 nM; no serum; substrate; sulfoxide epimer and D/L form not told. The text has this: SPR, Biacore T200, single cycle kinetics, MsrA/B immobilized by amine coupling on CM5 chip on MsrA/B | MsrA/B bound to Met(O) with a high affinity, with a KD
On the technique in general: SPR reads the build-up and loss of mass on a sensor chip optically.

As to `C[S+]([O-])CC[C@H](N)C(=O)O` (stereo partly shown) [Met(O)], the affinity, expressed as Kd, was 15.4 ± 3.7 nM.
